Data as given in patent publication US20070142431A1, “Quinoline 4-carboxamide derivatives and their use as neurokinin 3 (nk-3) receptor antagonists” (SmithKline Beecham Corporation, priority 2003, published 2007).

How the values were obtained:
NK2 receptor = biological target: T1, NK2 receptor (Homo sapiens, UniProt P21452); test: NK binding affinity, scintillation proximity assay (SPA), 125I NKA; conditions: plasma membrane from CHO cell lines expressing NK2, read-out: NK2 pKi (converted)
T1 construct: expressed in transfected cells; host or cells: CHO cell line, plasma membrane preparation
T1 sequence (P21452 1-398): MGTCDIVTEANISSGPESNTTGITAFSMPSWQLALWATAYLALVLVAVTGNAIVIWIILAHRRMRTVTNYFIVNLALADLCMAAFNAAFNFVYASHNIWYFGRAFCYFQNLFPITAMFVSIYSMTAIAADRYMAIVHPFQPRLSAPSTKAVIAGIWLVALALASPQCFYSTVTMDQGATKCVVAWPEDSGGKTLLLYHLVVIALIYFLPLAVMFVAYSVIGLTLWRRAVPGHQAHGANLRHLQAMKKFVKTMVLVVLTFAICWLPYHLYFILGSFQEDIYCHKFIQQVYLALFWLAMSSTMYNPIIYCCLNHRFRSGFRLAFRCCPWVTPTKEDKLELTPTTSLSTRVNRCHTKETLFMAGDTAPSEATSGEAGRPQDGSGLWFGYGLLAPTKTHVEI
Description: (§1) The NK binding affinity of the compounds of the invention was determined using the following scintillation proximity assay (SPA) (see H. M. Sarau et al, J. Pharmacol. Experimental Therapeutics 1997, 281(3), 1303-1311; H. M. Sarau et al, J. Pharmacol. Experimental Therapeutics 2000, 295(1), 373-381; G. A. M. Giardina et al J.Med.Chem 1999, 42, 1053-1065). ^125I Substance P, ^125I NKA and ^125I [MePhe7]-NKB were used in the binding SPA of NK1, NK2 and NK3 receptor, respectively. Polystrene Leadseeker WGA-SPA beads (Amersham Biosciences) were mixed with plasma membrane prepared from CHO cell lines expressing NK1, NK2 or NK3 in a bead/membrane ratio of 20:1 (w/w) in assay buffer (75 mM Tris pH 7.8, 75 mM NaCl, 4 mM MnCl2, 1 mM EDTA, 0.05% Chaps, 1 mM PMSF). The mixture was placed on ice for 30 minutes to allow the formation of membrane/bead complex before BSA was added to a final concentration of 1%. After another 30 minutes incubation on ice, the bead/membrane complex was washed twice and suspended in assay buffer. ^125I-labelled ligands were then added to the bead/membrane complex. 30 μl of the resulting mixture was then dispensed into each well of a Nalgen NUNC 384-well plate with 1 μl compound pre-dispensed in 50% DMSO. The plates were then sealed and pulse spun at 1100 rpm. After 3 hours incubation at room temperature with shaking, the plates were spun for 2 min at 1100 rpm and measured in Viewlux imager (PerkinElmer) for 5 minutes with a 618-nm filter. Inhibition of radioactive ligand binding to its respective receptor was measured by the reduction of signal. pKi was calculated using Kd of each radioactive ligand determined in a separate experiment.

NK3 receptor = biological target: T2, NK3 receptor (Homo sapiens, UniProt P29371); test: NK binding affinity, scintillation proximity assay (SPA), 125I [MePhe7]-NKB; conditions: plasma membrane from CHO cell lines expressing NK3, read-out: NK3 pKi (converted)
T2 construct: expressed in transfected cells; host or cells: CHO cell line, plasma membrane preparation
T2 sequence (P29371 1-465): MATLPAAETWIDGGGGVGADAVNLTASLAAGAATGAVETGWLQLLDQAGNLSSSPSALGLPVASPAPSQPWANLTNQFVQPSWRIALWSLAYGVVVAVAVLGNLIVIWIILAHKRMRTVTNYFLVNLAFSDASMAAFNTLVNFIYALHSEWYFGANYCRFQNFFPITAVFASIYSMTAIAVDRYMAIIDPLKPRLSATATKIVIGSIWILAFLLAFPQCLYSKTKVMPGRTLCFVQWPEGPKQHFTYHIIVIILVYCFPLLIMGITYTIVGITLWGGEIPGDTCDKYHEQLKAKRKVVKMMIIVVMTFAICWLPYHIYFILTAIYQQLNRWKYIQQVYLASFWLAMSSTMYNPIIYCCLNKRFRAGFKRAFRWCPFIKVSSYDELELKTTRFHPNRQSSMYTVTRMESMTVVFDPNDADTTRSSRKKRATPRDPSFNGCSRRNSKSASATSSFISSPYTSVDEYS
Description: as §1

NK1 receptor = biological target: T3, NK1 receptor (Homo sapiens, UniProt P25103); test: NK binding affinity, scintillation proximity assay (SPA), 125I Substance P; conditions: plasma membrane from CHO cell lines expressing NK1, read-out: NK1 pKi (converted)
T3 construct: expressed in transfected cells; host or cells: CHO cell line, plasma membrane preparation
Description: as §1

[1] = Measurement of brain exposure; assay type: in vivo; conditions: rats, orally dosed 3 mg/kg as 1% methylcellulose suspension; brain homogenate concentration vs time over 12 hr
Description: Compounds of the invention were orally dosed (3 mg/kg) to rats as 1% methylcellulose (w/v) suspensions. The rats were sacrificed after set time intervals and the concentration of the compound of the invention in brain homogenate was determined by protein precipitation followed by LC-MS-MS analysis of the extracts against standards prepared in brain homogenate. A graph of brain concentration against time was plotted over a 12 hr period. The area under the curve (AUC, units=hours.ng/g brain) was taken as a measure of brain exposure.

T3 sequence (P25103 whole entry): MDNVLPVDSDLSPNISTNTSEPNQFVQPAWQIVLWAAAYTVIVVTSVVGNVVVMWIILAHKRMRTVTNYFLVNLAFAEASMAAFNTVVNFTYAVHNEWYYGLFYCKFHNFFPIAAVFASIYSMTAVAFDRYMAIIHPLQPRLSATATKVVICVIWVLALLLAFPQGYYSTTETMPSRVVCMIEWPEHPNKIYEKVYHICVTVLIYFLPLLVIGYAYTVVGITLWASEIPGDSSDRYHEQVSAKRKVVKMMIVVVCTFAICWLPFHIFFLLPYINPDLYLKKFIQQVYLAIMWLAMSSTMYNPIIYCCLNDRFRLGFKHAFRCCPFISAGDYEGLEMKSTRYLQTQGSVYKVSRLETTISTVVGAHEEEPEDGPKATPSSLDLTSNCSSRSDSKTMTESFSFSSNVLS

Row | SMILES | Ki (NK2 receptor) [nM] | Ki (NK3 receptor) [nM] | Ki (NK1 receptor) [nM] | Brain Exposure (AUC, h · ng/g brain) [1] [h · ng/g brain]
1 | O=C(N[C@H](c1ccccc1)C1CC1)c1c(Cn2nccn2)c(-c2cccc(F)c2)nc2ccccc12 [Example 1, 2-(3-Fluoro-phenyl)-3-[1,2,3]triazol-2-ylmethyl-quinoline4-carboxylic acid ((S)-1-cyclopropyl-1-phenyl-methyl)-amide] | 316 | 10 | 1000 | 1896
2 | O=C(N[C@H](c1cccc(F)c1)C1CC1)c1c(Cn2ncnn2)c(-c2ccccc2)nc2ccccc12 [Example 35, 2-Phenyl-3-tetrazol-2-ylmethyl-quinoline-4-carboxylic acid [(S)-1-cyclopropyl-1-(3-fluoro-phenyl)-methyl]-amide] | 251 | 3.98 | 1260 | 2361
3 | O=C(N[C@H](c1cccc(F)c1)C1CC1)c1c(Cn2nccn2)c(-c2ccccc2)nc2ccccc12 [Example 37, 2-Phenyl-3-[1,2,3]triazol-2-ylmethyl-quinoline-4-carboxylic acid [(S)-1-cyclopropyl-1-(3-fluoro-phenyl)-methyl]-amide] | 158 | 2.51 | 631 | 2091
4 | O=C(N[C@H](c1ccccc1)C1CC1)c1c(Cn2ncnn2)c(-c2cccc(F)c2)nc2ccccc12 [Example 45, 2-(3-Fluoro-phenyl)-3-tetrazol-2-ylmethyl-quinoline-4-carboxylic acid ((S)-1-cyclopropyl-1-phenyl-methyl)-amide] | 251 | 10 | 1260 | 1900
